The target of this experiment is T1, ERα (Homo sapiens, UniProt P03372).
T1 construct: host or cells: MCF7
T1 sequence (P03372 1-595): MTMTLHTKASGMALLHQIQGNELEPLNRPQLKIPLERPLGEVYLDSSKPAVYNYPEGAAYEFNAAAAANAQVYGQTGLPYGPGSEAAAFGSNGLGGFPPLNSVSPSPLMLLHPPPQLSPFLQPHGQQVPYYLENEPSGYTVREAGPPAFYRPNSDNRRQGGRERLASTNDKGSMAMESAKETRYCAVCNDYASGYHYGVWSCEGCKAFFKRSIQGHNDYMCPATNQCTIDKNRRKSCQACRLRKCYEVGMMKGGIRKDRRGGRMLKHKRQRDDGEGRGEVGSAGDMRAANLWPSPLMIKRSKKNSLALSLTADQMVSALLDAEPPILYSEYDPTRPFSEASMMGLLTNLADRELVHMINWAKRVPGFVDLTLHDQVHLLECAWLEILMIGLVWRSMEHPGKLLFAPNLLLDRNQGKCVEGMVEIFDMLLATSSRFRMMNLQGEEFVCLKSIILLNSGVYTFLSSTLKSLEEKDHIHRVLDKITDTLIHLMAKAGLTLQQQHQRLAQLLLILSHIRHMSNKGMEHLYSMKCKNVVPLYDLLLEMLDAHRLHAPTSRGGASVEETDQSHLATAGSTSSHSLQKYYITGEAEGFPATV
In words: Estrogen receptor degradation activity: breast cancer cell ERα in cell western assay (MCF7 cells). In kind it is cell-based. To be noted: for % Degradation At 0.3 μM: 4 hours, relative to fulvestrant 0.1 μM positive control; for DC50: 4 hours post compound addition, concentration which degrades 50% of the estrogen receptor, read-out: Degradation IC50. A digest of the protocol: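 In-cell western readout: ERα immunofluorescence (Alexa 488) normalised to DNA signal (Syto-64) after formalin fixation. Compounds dosed for 4 h on MCF7 cells in stripped-serum, phenol-red-free medium over nine 1:5 steps, 0.3 to […] final; fulvestrant 0.1 μM control. IC50 in nM for 50% ERα degradation.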

With `O=C(O)c1ccc2c(c1)CCCC(c1cc(Cl)cc(C(F)(F)F)c1)=C2c1ccc(C=C2CN(CCCF)C2)cc1` [Example 143, 8-(3-chloro-5-(trifluoromethyl)phenyl)-9-(4-((1-(3-fluoropropyl)azetidin-3-ylidene)methyl)phenyl)-6,7-dihydro-5H-benzo[7]annulene-3-carboxylic acid], the “% Degradation At 0.3 μM” value came to 81% and the DC50 worked out at 3.7 nM.
For the compound `Cc1ccc(C2=C(c3ccc(C=C4CN(CCCF)C4)cc3)c3ccc(C(=O)O)cc3CCC2)cc1C(F)(F)F` [Example 144, 9-(4-((1-(3-fluoropropyl)azetidin-3-ylidene)methyl)phenyl)-8-(4-methyl-3-(trifluoromethyl)phenyl)-6,7-dihydro-5H-benzo[7]annulene-3-carboxylic acid], the “% Degradation At 0.3 μM” value amounted to 90% and the DC50 came out at 0.4 nM.
In the case of `Cc1cc(C2=C(c3ccc(C=C4CN(CCCF)C4)cc3)c3ccc(C(=O)O)cc3CCC2)cc(C(F)(F)F)c1` [Example 145, 9-(4-((1-(3-fluoropropyl)azetidin-3-ylidene)methyl)phenyl)-8-(3-methyl-5-(trifluoromethyl)phenyl)-6,7-dihydro-5H-benzo[7]annulene-3-carboxylic acid], the “% Degradation At 0.3 μM” value was 85% and the DC50 worked out at 4.3 nM.
Taken in the same sequence, the figures for `O=C(O)c1ccc2c(c1)CCCC(c1ccc(C(F)(F)F)c(C(F)(F)F)c1)=C2c1ccc(C=C2CN(CCCF)C2)cc1` [Example 146, 8-(3,4-bis(trifluoromethyl)phenyl)-9-(4-((1-(3-fluoropropyl)azetidin-3-ylidene)methyl)phenyl)-6,7-dihydro-5H-benzo[7]annulene-3-carboxylic acid] were 88% and 1.4 nM.
As for `O=C(O)c1ccc2c(c1)CCCC(c1cccc(C(F)(F)F)c1Cl)=C2c1ccc(C=C2CN(CCCF)C2)cc1` [Example 147, 8-(2-chloro-3-(trifluoromethyl)phenyl)-9-(4-((1-(3-fluoropropyl)azetidin-3-ylidene)methyl)phenyl)-6,7-dihydro-5H-benzo[7]annulene-3-carboxylic acid], the “% Degradation At 0.3 μM” value was determined as 90% and the DC50 was determined as 0.3 nM.
Regarding `COc1ccc(C2=C(c3ccc(C=C4CN(CCCF)C4)cc3)c3ccc(C(=O)O)cc3CCC2)cc1C(F)(F)F` [Example 148, 9-(4-((1-(3-fluoropropyl)azetidin-3-ylidene)methyl)phenyl)-8-(4-methoxy-3-(trifluoromethyl)phenyl)-6,7-dihydro-5H-benzo[7]annulene-3-carboxylic acid], the “% Degradation At 0.3 μM” value is 90% and the DC50 came to 1.2 nM.
As for `CCOc1ccc(C2=C(c3ccc(C=C4CN(CCCF)C4)cc3)c3ccc(C(=O)O)cc3CCC2)cc1C(F)(F)F` [Example 149, 8-(4-ethoxy-3-(trifluoromethyl)phenyl)-9-(4-((1-(3-fluoropropyl)azetidin-3-ylidene)methyl)phenyl)-6,7-dihydro-5H-benzo[7]annulene-3-carboxylic acid], the “% Degradation At 0.3 μM” value stood at 87% and the DC50 came to 0.4 nM.
On to `COc1cc(C2=C(c3ccc(C=C4CN(CCCF)C4)cc3)c3ccc(C(=O)O)cc3CCC2)cc(C(F)(F)F)c1` [Example 150], for which the “% Degradation At 0.3 μM” value is on record as 88% and the DC50 worked out at 1.7 nM.
For `O=C(O)c1ccc2c(c1)CCCC(c1cc(C(F)(F)F)ccc1C(F)(F)F)=C2c1ccc(C=C2CN(CCCF)C2)cc1` [Example 151, 8-(2,5-bis(trifluoromethyl)phenyl)-9-(4-((1-(3-fluoropropyl)azetidin-3-ylidene)methyl)phenyl)-6,7-dihydro-5H-benzo[7]annulene-3-carboxylic acid], the “% Degradation At 0.3 μM” value came out at 90% and the DC50 is 0.2 nM.
Regarding `Cc1cc(F)ccc1C1=C(c2ccc(C=C3CN(CCCF)C3)c(F)c2F)c2ccc(C(=O)O)cc2CCC1` [Example 152, 9-(2,3-difluoro-4-((1-(3-fluoropropyl)azetidin-3-ylidene)methyl)phenyl)-8-(4-fluoro-2-methylphenyl)-6,7-dihydro-5H-benzo[7]annulene-3-carboxylic acid], the “% Degradation At 0.3 μM” value came out at 93% and the DC50 was determined as 0.2 nM.
Turning to `O=C(O)c1ccc2c(c1)CCCC(c1cc(F)ccc1C(F)(F)F)=C2c1ccc(C=C2CN(CCCF)C2)cc1` [Example 153, 8-(5-fluoro-2-(trifluoromethyl)phenyl)-9-(4-((1-(3-fluoropropyl)azetidin-3-ylidene)methyl)phenyl)-6,7-dihydro-5H-benzo[7]annulene-3-carboxylic acid], the “% Degradation At 0.3 μM” value was 92% and the DC50 came to 0.5 nM.
Taken in the same sequence, the figures for `O=C(O)c1ccc2c(c1)CCCC(c1ccc(F)c(C(F)(F)F)c1)=C2c1ccc(C=C2CN(CCCF)C2)cc1` [Example 154, 8-(4-fluoro-3-(trifluoromethyl)phenyl)-9-(4-((1-(3-fluoropropyl)azetidin-3-ylidene)methyl)phenyl)-6,7-dihydro-5H-benzo[7]annulene-3-carboxylic acid] were 92% and 0.4 nM.
In the case of `O=C(O)c1ccc2c(c1)CCCC(c1cc(F)cc(C(F)(F)F)c1)=C2c1ccc(C=C2CN(CCCF)C2)cc1` [Example 155, 8-(3-fluoro-5-(trifluoromethyl)phenyl)-9-(4-((1-(3-fluoropropyl)azetidin-3-ylidene)methyl)phenyl)-6,7-dihydro-5H-benzo[7]annulene-3-carboxylic acid], the “% Degradation At 0.3 μM” value came out at 91% and the DC50 worked out at 0.3 nM.
On to `COc1cc(C2=C(c3ccc(C=C4CN(CCCF)C4)cc3)c3ccc(C(=O)O)cc3CCC2)c(F)cn1` [Example 156, 8-(5-fluoro-2-methoxypyridin-4-yl)-9-(4-((1-(3-fluoropropyl)azetidin-3-ylidene)methyl)phenyl)-6,7-dihydro-5H-benzo[7]annulene-3-carboxylic acid], for which the “% Degradation At 0.3 μM” value came to 89% and the DC50 was found to be 0.6 nM.
As to `Cc1cc(F)ccc1C1=C(c2ccc(C=C3CN(CCCF)C3)c(C(F)(F)F)c2)c2ccc(C(=O)O)cc2CCC1` [Example 157, 8-(4-fluoro-2-methylphenyl)-9-(4-((1-(3-fluoropropyl)azetidin-3-ylidene)methyl)-3-(trifluoromethyl)phenyl)-6,7-dihydro-5H-benzo[7]annulene-3-carboxylic acid], the “% Degradation At 0.3 μM” value stood at 88% and the DC50 was found to be 3.1 nM.
On to `O=C(O)c1ccc2c(c1)CCCC(c1ccc(Cl)cc1Cl)=C2c1ncc(C=C2CN(CCCF)C2)cc1F` [Example 158, 8-(2,4-Dichlorophenyl)-9-(3-fluoro-5-((1-(3-fluoropropyl)azetidin-3-ylidene)methyl)pyridin-2-yl)-6,7-dihydro-5H-benzo[7]annulene-3-carboxylic acid], for which the “% Degradation At 0.3 μM” value amounted to 94% and the DC50 was 0.4 nM.
The corresponding values for `O=C(O)c1ccc2c(c1)CCCC(c1ccc(Cl)cc1Cl)=C2c1ccc(C=C2CN(CCCF)C2)cn1` [Example 159, 8-(2,4-Dichlorophenyl)-9-(5-((1-(3-fluoropropyl)azetidin-3-ylidene)methyl)pyridin-2-yl)-6,7-dihydro-5H-benzo[7]annulene-3-carboxylic acid] are 97% and 20.4 nM.
